# From the kinase profiling compilation of Christmann-Franck et al. (2016)
# Assays:
# Assay in all cases: KINOMEscan competition binding
# Details in all cases: compound 10.0 µM
# [1] = biological target: DMPK (human) (UniProt Q09013)
# [2] = biological target: CAMK1D (human) (UniProt Q8IU85)
# [3] = biological target: TYK2 JH1 catalytic (human) (UniProt P29597)
# [4] = biological target: RIOK3 (human) (UniProt O14730)
# [5] = biological target: AKT1 (human) (UniProt P31749)
# [6] = biological target: ACVR1B (human) (UniProt P36896)
# [7] = biological target: AURKA (human) (UniProt O14965)
# [8] = biological target: INSR (human) (UniProt P06213)
# [9] = biological target: NUAK2 (human) (UniProt Q9H093)
# [10] = biological target: PRKAA2 (human) (UniProt P54646)
# [11] = biological target: PAK6 (human) (UniProt Q9NQU5)
# [12] = biological target: FRK (human) (UniProt P42685)
# [13] = biological target: WEE1 (human) (UniProt P30291)
# [14] = biological target: EPHB3 (human) (UniProt P54753)
# [15] = biological target: STK36 (human) (UniProt Q9NRP7)
# [16] = biological target: EPHA1 (human) (UniProt P21709)
# [17] = biological target: CDK18 (human) (UniProt Q07002)
# [18] = biological target: MAPK3 (human) (UniProt P27361)
# [19] = biological target: MST4 (human) (UniProt Q9P289)
# [20] = biological target: PRKD3 (human) (UniProt O94806)
# [21] = biological target: SRPK3 (human) (UniProt Q9UPE1)
# [22] = biological target: CDK7 (human) (UniProt P50613)
# [23] = biological target: MAP3K3 (human) (UniProt Q99759)
# [24] = test system: KIT (human), P10721 [D816V]
# [25] = biological target: RPS6KA5 KD1 (human) (UniProt O75582)
# [26] = biological target: STK35 (human) (UniProt Q8TDR2)
# [27] = biological target: CDK11B (human) (UniProt P21127)
# [28] = biological target: MAP4K5 (human) (UniProt Q9Y4K4)
# [29] = biological target: MAP2K3 (human) (UniProt P46734)
# [30] = biological target: FGFR2 (human) (UniProt P21802)
# [31] = biological target: ROS1 (human) (UniProt P08922)
# [32] = biological target: MARK4 (human) (UniProt Q96L34)
# [33] = biological target: CSNK1G3 (human) (UniProt Q9Y6M4)
# [34] = biological target: CSNK1G2 (human) (UniProt P78368)
# [35] = biological target: NLK (human) (UniProt Q9UBE8)
# [36] = biological target: PAK7 (human) (UniProt Q9P286)
# [37] = biological target: MST1R (human) (UniProt Q04912)
# [38] = biological target: MAP2K2 (human) (UniProt P36507)
# [39] = biological target: SRPK1 (human) (UniProt Q96SB4)
# [40] = biological target: PRKACA (human) (UniProt P17612)
# TYK2 JH1 catalytic (human), sequence (P29597 whole entry, looked up): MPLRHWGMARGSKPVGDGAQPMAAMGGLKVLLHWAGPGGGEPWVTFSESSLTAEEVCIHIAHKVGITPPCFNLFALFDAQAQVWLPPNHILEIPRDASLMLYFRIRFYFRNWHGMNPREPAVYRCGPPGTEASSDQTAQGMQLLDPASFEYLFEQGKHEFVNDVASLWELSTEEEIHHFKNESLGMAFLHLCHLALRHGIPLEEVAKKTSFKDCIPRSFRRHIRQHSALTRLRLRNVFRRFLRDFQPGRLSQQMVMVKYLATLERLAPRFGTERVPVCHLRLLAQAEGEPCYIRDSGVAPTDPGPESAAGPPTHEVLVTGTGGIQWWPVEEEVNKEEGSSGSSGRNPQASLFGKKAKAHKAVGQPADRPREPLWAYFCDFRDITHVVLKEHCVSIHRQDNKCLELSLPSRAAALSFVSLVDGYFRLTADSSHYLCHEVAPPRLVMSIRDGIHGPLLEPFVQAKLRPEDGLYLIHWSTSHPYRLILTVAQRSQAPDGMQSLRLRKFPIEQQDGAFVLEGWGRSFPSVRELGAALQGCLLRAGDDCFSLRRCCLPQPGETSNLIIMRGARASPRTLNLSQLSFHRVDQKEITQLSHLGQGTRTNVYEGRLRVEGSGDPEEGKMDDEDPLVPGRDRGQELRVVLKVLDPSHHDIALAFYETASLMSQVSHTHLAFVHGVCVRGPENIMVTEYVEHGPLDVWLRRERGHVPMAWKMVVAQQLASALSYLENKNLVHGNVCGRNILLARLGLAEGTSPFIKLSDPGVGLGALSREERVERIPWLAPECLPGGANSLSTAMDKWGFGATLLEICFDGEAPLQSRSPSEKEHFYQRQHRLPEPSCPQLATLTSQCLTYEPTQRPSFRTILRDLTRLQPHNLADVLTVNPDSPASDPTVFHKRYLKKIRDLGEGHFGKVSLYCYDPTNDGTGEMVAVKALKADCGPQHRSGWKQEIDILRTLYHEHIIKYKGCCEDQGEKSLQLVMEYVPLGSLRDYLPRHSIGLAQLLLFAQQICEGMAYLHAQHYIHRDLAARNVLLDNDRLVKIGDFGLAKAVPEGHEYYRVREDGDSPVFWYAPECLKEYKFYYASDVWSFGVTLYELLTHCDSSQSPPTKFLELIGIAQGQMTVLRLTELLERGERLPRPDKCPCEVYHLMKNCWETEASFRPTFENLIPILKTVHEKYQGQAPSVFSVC
# PRKD3 (human), sequence (O94806 whole entry, looked up): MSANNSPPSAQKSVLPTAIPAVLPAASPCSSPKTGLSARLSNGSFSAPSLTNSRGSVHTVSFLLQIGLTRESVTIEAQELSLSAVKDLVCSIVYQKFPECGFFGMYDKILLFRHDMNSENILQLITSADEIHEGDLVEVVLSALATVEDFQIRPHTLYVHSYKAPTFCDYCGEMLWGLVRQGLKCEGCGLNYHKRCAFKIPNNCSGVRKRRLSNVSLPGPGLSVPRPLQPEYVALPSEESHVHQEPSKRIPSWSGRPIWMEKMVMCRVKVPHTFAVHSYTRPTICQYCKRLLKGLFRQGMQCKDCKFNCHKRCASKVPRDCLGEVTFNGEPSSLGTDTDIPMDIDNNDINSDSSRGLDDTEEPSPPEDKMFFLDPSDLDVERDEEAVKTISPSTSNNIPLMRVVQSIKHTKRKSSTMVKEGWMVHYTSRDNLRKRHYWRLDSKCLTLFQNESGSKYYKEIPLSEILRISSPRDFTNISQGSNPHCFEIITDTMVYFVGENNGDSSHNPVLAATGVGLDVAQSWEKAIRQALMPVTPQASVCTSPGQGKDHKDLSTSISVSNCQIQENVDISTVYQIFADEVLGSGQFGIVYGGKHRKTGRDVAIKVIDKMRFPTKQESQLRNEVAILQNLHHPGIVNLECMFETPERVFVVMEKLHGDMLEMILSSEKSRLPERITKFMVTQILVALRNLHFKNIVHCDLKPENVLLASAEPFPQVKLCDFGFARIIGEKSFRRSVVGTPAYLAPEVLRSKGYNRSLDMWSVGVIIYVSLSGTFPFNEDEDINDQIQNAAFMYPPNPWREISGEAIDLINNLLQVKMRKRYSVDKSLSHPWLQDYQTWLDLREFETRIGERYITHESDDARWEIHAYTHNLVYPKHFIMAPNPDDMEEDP
# FRK (human), sequence (P42685 whole entry, looked up): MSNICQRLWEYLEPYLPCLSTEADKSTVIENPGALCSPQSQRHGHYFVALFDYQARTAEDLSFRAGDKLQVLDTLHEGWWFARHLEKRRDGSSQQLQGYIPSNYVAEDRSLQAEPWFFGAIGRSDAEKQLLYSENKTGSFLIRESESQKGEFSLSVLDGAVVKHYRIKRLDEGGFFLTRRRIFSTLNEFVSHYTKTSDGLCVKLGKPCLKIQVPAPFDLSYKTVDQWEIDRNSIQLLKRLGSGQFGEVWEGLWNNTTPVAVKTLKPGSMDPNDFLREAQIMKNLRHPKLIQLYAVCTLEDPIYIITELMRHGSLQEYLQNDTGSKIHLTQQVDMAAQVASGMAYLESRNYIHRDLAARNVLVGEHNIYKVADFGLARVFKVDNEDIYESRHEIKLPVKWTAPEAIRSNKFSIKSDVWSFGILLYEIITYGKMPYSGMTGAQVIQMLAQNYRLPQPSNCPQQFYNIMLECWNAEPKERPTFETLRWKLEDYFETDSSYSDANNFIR
# DMPK (human), sequence (Q09013 whole entry, looked up): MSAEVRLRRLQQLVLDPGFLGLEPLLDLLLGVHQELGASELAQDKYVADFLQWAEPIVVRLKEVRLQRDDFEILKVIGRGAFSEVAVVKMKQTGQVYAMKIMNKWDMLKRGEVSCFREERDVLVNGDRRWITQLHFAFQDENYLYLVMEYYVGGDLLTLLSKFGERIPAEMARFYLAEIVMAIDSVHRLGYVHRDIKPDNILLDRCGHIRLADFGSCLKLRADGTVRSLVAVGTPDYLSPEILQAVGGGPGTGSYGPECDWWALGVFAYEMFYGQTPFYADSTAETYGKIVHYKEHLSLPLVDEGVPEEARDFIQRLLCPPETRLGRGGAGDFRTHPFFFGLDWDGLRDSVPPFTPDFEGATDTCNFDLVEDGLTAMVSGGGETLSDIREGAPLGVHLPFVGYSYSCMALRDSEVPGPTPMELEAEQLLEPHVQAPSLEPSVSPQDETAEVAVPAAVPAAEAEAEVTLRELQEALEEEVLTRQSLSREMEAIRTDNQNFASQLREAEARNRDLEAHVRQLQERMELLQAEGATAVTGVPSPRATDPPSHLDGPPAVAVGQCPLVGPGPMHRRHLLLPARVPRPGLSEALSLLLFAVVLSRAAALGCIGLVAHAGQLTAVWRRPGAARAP
# CAMK1D (human), sequence (Q8IU85 whole entry, looked up): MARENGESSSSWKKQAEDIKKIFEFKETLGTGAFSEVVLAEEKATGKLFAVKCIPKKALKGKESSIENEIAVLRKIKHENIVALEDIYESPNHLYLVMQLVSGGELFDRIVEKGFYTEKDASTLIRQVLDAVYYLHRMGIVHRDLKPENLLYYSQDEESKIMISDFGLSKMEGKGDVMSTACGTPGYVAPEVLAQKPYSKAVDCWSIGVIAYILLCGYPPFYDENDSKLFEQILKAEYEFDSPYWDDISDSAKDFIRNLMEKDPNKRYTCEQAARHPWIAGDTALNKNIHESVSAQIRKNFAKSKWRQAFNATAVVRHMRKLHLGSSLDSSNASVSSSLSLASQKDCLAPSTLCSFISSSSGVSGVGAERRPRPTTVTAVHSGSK
# CSNK1G2 (human), sequence (P78368 whole entry, looked up): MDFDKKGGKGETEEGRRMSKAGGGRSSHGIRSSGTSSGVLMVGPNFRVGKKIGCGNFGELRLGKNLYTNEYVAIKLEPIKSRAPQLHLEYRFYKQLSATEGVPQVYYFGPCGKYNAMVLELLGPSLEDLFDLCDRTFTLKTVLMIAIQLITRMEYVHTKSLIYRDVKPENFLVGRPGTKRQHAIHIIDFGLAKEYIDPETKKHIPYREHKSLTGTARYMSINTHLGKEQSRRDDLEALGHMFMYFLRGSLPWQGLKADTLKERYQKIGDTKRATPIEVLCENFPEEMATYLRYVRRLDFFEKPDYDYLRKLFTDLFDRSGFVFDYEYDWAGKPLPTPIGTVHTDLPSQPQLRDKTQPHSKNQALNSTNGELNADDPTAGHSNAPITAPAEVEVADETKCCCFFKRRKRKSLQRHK
# CDK11B (human), sequence (P21127 whole entry, looked up): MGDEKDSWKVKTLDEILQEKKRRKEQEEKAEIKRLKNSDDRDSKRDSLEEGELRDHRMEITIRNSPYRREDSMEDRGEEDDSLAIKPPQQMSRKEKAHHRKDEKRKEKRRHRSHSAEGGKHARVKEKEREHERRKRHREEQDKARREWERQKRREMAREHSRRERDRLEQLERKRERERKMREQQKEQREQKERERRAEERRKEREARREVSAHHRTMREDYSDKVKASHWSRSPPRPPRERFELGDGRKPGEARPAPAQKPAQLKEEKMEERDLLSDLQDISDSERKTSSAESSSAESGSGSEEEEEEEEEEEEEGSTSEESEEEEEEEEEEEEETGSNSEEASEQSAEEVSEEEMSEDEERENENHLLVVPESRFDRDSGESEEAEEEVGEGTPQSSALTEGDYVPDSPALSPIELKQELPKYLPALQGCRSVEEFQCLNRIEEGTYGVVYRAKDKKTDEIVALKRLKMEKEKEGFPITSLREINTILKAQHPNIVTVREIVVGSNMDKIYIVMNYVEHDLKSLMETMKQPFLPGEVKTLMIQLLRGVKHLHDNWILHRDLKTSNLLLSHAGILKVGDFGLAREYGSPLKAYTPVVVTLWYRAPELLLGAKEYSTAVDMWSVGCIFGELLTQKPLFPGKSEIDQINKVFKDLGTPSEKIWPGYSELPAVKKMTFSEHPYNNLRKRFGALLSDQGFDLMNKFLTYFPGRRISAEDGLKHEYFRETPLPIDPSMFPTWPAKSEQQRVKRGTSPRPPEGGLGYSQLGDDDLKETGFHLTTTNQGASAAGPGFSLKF
Compound,"kinase still bound, per cent of control [1]","kinase still bound, per cent of control [2]","kinase still bound, per cent of control [3]","kinase still bound, per cent of control [4]","kinase still bound, per cent of control [5]","kinase still bound, per cent of control [6]","kinase still bound, per cent of control [7]","kinase still bound, per cent of control [8]","kinase still bound, per cent of control [9]","kinase still bound, per cent of control [10]","kinase still bound, per cent of control [11]","kinase still bound, per cent of control [12]","kinase still bound, per cent of control [13]","kinase still bound, per cent of control [14]","kinase still bound, per cent of control [15]","kinase still bound, per cent of control [16]","kinase still bound, per cent of control [17]","kinase still bound, per cent of control [18]","kinase still bound, per cent of control [19]","kinase still bound, per cent of control [20]",also measured
CN(C)C/C=C/C(=O)Nc1cccc(Nc2ncc3c(n2)N(C)c2ccccc2C(=O)N3C)c1,32%,59%,5%,16%,100%,53%,0.65%,100%,2.6%,1.4%,66%,18%,100%,88%,100%,55%,100%,100%,31%,19%,"kinase still bound, per cent of control [21]: 63%; kinase still bound, per cent of control [22]: 9.6%; kinase still bound, per cent of control [23]: 0.1%; kinase still bound, per cent of control [24]: 7.4%; kinase still bound, per cent of control [25]: 100%; kinase still bound, per cent of control [26]: 89%; kinase still bound, per cent of control [27]: 100%; kinase still bound, per cent of control [28]: 75%; kinase still bound, per cent of control [29]: 100%; kinase still bound, per cent of control [30]: 13%; kinase still bound, per cent of control [31]: 27%; kinase still bound, per cent of control [32]: 1.5%; kinase still bound, per cent of control [33]: 39%; kinase still bound, per cent of control [34]: 69%; kinase still bound, per cent of control [35]: 36%; kinase still bound, per cent of control [36]: 36%; kinase still bound, per cent of control [37]: 93%; kinase still bound, per cent of control [38]: 78%; kinase still bound, per cent of control [39]: 23%; kinase still bound, per cent of control [40]: 100%"
OCCCNc1cc(-c2ccnc(Nc3cccc(Cl)c3)n2)ccn1,100%,100%,100%,100%,100%,100%,100%,100%,100%,100%,100%,100%,100%,100%,100%,100%,100%,100%,100%,100%,"kinase still bound, per cent of control [21]: 100%; kinase still bound, per cent of control [22]: 100%; kinase still bound, per cent of control [23]: 100%; kinase still bound, per cent of control [24]: 100%; kinase still bound, per cent of control [25]: 100%; kinase still bound, per cent of control [26]: 100%; kinase still bound, per cent of control [27]: 100%; kinase still bound, per cent of control [28]: 100%; kinase still bound, per cent of control [29]: 100%; kinase still bound, per cent of control [30]: 100%; kinase still bound, per cent of control [31]: 100%; kinase still bound, per cent of control [32]: 100%; kinase still bound, per cent of control [33]: 100%; kinase still bound, per cent of control [34]: 100%; kinase still bound, per cent of control [35]: 100%; kinase still bound, per cent of control [36]: 100%; kinase still bound, per cent of control [37]: 100%; kinase still bound, per cent of control [38]: 100%; kinase still bound, per cent of control [39]: 100%; kinase still bound, per cent of control [40]: 100%"
